ChEMBL document CHEMBL3991601, “The target landscape of clinical kinase drugs” (Science, 2017)
Calls of active or inactive are those of the source.

Legend:
[1] = target: Ras-related protein Rab-6A (Homo sapiens, UniProt P20340)
Pyridoxal kinase = target: T1, Pyridoxal kinase (Homo sapiens, UniProt O00764)
T1 sequence (O00764 whole entry): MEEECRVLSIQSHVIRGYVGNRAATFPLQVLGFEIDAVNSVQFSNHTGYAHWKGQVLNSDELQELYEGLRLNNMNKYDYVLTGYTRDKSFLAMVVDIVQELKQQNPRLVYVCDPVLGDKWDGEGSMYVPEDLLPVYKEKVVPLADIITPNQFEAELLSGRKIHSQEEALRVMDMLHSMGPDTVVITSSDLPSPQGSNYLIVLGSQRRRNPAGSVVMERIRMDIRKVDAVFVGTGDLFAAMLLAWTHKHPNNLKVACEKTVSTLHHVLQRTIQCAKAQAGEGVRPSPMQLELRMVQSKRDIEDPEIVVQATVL

[2] = target: DNA topoisomerase 2-alpha (Homo sapiens, UniProt P11388)
ADP/ATP translocase 3 = target: T2, ADP/ATP translocase 3 (Homo sapiens, UniProt P12236)
T2 sequence (P12236 whole entry): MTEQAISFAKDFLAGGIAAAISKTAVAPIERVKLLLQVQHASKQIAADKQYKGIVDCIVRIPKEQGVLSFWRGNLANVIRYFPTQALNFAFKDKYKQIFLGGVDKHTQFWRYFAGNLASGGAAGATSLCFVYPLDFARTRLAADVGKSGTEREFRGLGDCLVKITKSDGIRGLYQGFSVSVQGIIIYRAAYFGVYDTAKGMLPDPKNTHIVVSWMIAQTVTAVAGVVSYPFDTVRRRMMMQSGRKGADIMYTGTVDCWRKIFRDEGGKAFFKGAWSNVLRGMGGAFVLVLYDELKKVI

Wee1-like protein kinase = Wee1-like protein kinase (Homo sapiens, UniProt P30291)
[3] = target: T3, Ras-related protein Rab-10 (Homo sapiens, UniProt P61026)
T3 sequence (P61026 whole entry): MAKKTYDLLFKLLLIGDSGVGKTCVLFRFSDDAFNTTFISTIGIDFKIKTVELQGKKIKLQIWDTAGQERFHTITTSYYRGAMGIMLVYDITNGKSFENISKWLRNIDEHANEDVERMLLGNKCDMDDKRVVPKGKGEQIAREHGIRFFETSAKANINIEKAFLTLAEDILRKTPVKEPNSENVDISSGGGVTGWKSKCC

[4] = target: Adenylate kinase 2, mitochondrial (Homo sapiens, UniProt P54819)
[5] = target: T4, ATP-dependent RNA helicase DDX42 (Homo sapiens, UniProt Q86XP3)
T4 sequence (Q86XP3 whole entry): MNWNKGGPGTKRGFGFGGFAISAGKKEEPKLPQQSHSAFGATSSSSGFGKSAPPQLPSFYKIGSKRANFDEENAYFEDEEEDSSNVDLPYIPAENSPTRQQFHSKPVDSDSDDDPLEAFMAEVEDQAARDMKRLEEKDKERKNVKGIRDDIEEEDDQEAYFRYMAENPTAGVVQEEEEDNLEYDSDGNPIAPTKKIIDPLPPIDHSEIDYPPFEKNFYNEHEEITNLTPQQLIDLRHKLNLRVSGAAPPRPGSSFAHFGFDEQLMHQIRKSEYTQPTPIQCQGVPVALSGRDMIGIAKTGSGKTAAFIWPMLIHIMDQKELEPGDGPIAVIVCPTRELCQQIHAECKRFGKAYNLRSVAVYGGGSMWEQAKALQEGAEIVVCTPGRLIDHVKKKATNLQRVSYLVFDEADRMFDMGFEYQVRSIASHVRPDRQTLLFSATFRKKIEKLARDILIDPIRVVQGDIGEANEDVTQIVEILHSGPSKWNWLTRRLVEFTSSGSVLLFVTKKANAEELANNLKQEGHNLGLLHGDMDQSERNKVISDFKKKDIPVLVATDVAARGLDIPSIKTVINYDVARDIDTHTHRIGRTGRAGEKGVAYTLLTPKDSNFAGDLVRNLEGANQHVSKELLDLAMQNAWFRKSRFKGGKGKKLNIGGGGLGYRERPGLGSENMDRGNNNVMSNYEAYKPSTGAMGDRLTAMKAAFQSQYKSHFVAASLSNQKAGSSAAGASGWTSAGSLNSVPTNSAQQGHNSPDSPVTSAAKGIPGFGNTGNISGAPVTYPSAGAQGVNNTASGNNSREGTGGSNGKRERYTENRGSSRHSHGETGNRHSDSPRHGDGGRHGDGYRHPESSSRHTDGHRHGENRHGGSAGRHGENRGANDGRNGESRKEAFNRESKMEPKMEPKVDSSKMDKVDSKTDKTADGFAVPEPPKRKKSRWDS

[6] = target: Ribosomal protein S6 kinase alpha-3 (Homo sapiens, UniProt P51812)
Adenosine kinase = Adenosine kinase (Homo sapiens, UniProt P55263)
[7] = target: T5, Serine/threonine-protein kinase TBK1 (Homo sapiens, UniProt Q9UHD2)
T5 sequence (Q9UHD2 whole entry): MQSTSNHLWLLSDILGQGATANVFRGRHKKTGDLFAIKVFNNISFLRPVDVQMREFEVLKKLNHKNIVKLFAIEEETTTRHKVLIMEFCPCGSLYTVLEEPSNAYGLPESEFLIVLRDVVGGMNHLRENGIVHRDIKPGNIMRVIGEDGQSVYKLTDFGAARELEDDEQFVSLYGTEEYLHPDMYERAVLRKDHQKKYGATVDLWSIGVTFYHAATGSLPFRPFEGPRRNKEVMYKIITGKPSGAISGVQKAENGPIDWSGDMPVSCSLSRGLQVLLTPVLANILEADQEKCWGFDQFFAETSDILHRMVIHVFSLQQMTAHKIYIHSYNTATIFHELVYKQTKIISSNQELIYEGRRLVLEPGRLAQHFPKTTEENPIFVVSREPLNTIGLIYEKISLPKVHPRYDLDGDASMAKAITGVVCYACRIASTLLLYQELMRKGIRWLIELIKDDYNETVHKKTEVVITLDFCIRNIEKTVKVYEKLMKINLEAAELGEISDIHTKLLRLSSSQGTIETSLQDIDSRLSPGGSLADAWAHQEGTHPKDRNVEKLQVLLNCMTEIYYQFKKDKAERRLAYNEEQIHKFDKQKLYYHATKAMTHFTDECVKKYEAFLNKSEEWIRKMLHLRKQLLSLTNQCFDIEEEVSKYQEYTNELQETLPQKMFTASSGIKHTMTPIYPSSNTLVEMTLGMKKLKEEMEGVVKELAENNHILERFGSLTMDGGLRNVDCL

Myosin-14 = Myosin-14 (Homo sapiens, UniProt Q7Z406)
Also: in the data inactive means no Kd found up to 30 µM.

Ras-related protein Rab-6A, sequence (P20340 whole entry): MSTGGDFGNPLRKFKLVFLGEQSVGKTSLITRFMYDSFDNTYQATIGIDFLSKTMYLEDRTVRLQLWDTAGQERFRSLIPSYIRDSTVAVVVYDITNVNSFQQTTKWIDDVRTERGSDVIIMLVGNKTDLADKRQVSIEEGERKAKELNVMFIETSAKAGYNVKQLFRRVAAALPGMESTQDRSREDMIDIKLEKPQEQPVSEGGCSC
DNA topoisomerase 2-alpha, sequence (P11388 whole entry): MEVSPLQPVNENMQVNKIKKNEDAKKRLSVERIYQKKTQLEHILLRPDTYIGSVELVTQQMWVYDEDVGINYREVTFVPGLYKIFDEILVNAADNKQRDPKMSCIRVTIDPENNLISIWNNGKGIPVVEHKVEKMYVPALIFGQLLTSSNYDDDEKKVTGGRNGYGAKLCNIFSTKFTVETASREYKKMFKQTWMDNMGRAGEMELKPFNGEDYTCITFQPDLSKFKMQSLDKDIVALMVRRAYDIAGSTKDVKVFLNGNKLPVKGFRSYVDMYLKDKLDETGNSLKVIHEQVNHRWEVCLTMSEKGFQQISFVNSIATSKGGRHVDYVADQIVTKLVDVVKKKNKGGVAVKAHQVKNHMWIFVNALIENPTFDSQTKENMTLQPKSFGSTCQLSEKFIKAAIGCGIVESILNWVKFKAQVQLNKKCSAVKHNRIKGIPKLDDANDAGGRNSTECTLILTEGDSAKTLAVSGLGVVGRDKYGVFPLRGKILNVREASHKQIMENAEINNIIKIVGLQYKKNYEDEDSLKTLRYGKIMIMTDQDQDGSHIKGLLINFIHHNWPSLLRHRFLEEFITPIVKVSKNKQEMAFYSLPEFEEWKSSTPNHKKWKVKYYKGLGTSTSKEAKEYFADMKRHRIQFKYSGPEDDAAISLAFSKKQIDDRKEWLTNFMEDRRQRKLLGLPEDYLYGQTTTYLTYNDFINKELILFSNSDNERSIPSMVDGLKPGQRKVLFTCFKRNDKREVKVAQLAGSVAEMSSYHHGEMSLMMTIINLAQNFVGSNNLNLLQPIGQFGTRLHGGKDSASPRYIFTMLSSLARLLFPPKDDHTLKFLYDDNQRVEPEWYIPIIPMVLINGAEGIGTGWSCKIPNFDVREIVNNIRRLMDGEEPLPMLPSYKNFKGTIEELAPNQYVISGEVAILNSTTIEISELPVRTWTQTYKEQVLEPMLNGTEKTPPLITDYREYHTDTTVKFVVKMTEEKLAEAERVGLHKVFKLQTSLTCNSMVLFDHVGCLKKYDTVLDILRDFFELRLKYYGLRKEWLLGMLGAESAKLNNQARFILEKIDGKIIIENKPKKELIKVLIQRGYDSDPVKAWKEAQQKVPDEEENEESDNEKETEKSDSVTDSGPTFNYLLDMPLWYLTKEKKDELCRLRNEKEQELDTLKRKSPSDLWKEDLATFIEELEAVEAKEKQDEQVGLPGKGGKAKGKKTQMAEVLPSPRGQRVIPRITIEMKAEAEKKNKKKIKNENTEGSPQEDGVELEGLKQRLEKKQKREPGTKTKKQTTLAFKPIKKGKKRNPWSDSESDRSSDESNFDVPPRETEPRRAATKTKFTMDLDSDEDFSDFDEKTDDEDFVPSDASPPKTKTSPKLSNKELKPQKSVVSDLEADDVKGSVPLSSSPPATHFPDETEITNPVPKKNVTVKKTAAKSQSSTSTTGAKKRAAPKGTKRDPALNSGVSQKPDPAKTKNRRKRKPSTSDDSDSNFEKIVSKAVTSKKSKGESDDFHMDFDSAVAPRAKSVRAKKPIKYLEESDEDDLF
Ribosomal protein S6 kinase alpha-3, sequence (P51812 whole entry): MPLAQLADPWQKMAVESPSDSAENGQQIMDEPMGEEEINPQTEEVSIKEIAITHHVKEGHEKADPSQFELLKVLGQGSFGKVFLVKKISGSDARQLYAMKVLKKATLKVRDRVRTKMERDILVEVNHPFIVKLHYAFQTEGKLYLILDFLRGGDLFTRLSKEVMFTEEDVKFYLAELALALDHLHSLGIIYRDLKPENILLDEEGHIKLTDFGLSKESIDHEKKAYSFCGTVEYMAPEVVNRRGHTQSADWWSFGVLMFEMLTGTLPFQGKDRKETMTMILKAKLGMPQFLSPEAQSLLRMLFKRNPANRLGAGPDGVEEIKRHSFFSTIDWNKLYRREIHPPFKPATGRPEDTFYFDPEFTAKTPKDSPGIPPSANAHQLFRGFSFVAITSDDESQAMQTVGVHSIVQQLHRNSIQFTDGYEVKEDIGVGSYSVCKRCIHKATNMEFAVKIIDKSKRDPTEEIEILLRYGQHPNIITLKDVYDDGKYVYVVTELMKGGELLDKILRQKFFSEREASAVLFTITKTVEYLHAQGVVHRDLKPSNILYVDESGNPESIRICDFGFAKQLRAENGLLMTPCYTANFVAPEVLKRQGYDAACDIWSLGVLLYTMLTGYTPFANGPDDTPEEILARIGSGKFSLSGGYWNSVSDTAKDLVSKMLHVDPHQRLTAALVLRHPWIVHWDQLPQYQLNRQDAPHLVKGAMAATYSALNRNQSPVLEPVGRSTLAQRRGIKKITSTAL
Adenosine kinase, sequence (P55263 whole entry): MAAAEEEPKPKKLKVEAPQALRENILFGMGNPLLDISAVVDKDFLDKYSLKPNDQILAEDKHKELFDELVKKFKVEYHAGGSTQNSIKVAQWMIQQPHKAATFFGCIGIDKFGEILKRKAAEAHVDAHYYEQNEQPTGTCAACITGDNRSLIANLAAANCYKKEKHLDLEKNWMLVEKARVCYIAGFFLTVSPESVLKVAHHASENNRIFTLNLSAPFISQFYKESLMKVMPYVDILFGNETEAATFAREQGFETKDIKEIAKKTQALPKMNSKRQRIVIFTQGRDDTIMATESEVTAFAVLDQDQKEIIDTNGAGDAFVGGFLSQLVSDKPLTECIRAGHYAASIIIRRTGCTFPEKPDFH
Myosin-14, sequence (Q7Z406 whole entry): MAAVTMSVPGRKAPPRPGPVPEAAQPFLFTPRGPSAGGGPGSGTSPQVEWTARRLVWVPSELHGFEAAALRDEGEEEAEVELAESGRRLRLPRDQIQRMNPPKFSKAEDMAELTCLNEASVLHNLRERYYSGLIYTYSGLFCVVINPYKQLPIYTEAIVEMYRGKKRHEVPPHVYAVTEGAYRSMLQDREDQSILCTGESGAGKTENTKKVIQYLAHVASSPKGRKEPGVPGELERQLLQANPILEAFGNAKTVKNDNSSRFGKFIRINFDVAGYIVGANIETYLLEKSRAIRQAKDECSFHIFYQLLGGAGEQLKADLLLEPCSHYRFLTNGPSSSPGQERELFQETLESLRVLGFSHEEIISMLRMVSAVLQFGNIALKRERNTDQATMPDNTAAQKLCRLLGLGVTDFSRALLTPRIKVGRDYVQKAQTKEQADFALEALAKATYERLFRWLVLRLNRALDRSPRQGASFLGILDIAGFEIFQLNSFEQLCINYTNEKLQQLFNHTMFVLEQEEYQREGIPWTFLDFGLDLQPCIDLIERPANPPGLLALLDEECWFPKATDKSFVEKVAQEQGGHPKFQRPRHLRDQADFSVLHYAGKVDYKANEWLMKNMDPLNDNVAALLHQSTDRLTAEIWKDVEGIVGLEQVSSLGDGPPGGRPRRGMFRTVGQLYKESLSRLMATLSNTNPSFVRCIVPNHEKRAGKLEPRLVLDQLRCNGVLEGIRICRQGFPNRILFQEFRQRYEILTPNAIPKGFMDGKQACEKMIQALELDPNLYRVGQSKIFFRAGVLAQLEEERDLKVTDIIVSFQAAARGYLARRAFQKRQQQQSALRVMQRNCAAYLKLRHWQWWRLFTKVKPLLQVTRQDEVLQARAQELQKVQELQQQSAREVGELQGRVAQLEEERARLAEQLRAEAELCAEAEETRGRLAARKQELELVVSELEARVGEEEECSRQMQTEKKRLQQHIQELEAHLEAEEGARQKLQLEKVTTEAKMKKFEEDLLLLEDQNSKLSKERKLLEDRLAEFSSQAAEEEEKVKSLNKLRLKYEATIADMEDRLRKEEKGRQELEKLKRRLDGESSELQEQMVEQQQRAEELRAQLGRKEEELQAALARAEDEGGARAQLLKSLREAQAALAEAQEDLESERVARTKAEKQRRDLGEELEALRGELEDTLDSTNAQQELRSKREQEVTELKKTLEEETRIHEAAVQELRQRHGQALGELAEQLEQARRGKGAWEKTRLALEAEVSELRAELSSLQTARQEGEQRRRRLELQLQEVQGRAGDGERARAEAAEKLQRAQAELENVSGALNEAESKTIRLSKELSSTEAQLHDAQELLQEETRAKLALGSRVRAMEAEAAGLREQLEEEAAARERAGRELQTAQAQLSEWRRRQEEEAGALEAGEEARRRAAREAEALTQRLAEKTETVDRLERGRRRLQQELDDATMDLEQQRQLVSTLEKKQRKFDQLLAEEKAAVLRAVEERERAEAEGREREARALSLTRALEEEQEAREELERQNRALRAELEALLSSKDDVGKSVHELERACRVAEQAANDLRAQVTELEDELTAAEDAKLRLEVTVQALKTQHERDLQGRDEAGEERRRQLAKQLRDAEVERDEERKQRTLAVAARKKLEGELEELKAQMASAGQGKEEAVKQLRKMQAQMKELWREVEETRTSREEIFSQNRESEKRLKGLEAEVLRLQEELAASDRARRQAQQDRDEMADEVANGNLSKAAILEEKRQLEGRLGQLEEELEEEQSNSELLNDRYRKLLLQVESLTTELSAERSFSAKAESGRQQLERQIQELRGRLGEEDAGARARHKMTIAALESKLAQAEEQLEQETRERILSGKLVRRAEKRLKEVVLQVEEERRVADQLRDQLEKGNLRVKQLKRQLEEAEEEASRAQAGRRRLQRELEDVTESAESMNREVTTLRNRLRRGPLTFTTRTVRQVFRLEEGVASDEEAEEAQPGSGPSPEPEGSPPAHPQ

Structure (SMILES) | Kd [1] | Kd (Pyridoxal kinase) | Kd [2] | Kd (ADP/ATP translocase 3) | Kd (Wee1-like protein kinase) | Kd [3] | Kd [4] | Kd [5] | Kd [6] | Kd (Adenosine kinase) | Kd [7] | Kd (Myosin-14)
CC[C@H](Nc1ncnc2[nH]cnc12)c1nc2cccc(F)c2c(=O)n1-c1ccccc1 [IDELALISIB] | > 30 µM (inactive) | > 30 µM (inactive) | > 30 µM (inactive) | > 30 µM (inactive) | > 30 µM (inactive) | > 30 µM (inactive) | > 30 µM (inactive) | > 30 µM (inactive) | > 30 µM (inactive) | > 30 µM (inactive) | > 30 µM (inactive) | 
CN(C)C(=O)c1cc2cnc(Nc3ccc(N4CCNCC4)cn3)nc2n1C1CCCC1 [RIBOCICLIB] | > 30 µM (inactive) | > 30 µM (inactive) | > 30 µM (inactive) | > 30 µM (inactive) | > 30 µM (inactive) | > 30 µM (inactive) | > 30 µM (inactive) | > 30 µM (inactive) | > 30 µM (inactive) | > 30 µM (inactive) | > 30 µM (inactive) | 
C[C@@H]1CN(Cc2ccc(F)cc2)[C@@H](C)CN1C(=O)c1cc2c(C(=O)C(=O)N(C)C)cn(C)c2cc1Cl [TALMAPIMOD] | > 30 µM (inactive) | > 30 µM (inactive) |  | > 30 µM (inactive) | > 30 µM (inactive) | > 30 µM (inactive) | > 30 µM (inactive) |  | > 30 µM (inactive) | > 30 µM (inactive) | > 30 µM (inactive) | > 30 µM (inactive)
CN1CCN(c2ccc3nc(-c4c(N)c5c(F)cccc5[nH]c4=O)[nH]c3c2)CC1 [DOVITINIB] | > 30 µM (inactive) | > 30 µM (inactive) |  | > 30 µM (inactive) |  | > 30 µM (inactive) | > 30 µM (inactive) |  |  | > 30 µM (inactive) |  | > 30 µM (inactive)
Cc1ccc(NC(=O)c2ccc(CN3CC[C@H](N(C)C)C3)c(C(F)(F)F)c2)cc1Nc1nccc(-c2cncnc2)n1 [BAFETINIB] |  | > 30 µM (inactive) |  | > 30 µM (inactive) | > 30 µM (inactive) | > 30 µM (inactive) | > 30 µM (inactive) | > 30 µM (inactive) | > 30 µM (inactive) | > 30 µM (inactive) | > 30 µM (inactive) | > 30 µM (inactive)
Cn1cc(-c2ccc(F)c(C(F)(F)F)c2)nc1C1CCN(c2ncnc3[nH]ncc23)CC1 [LY-2584702] | > 30 µM (inactive) | > 30 µM (inactive) |  | > 30 µM (inactive) | > 30 µM (inactive) | > 30 µM (inactive) | > 30 µM (inactive) | > 30 µM (inactive) | > 30 µM (inactive) | > 30 µM (inactive) | > 30 µM (inactive) | > 30 µM (inactive)
COc1cc(OC)c(/C=C/S(=O)(=O)Cc2ccc(OC)c(NCC(=O)O)c2)c(OC)c1 [RIGOSERTIB] | > 30 µM (inactive) | > 30 µM (inactive) | > 30 µM (inactive) | > 30 µM (inactive) | > 30 µM (inactive) | > 30 µM (inactive) | > 30 µM (inactive) |  | > 30 µM (inactive) | > 30 µM (inactive) | > 30 µM (inactive) | 
Nc1nc(N)c2nc(-c3cccc(O)c3)c(-c3cccc(O)c3)nc2n1 [TG100-115] | > 30 µM (inactive) | 5.25 µM (active) | > 30 µM (inactive) | > 30 µM (inactive) |  | > 30 µM (inactive) | > 30 µM (inactive) | > 30 µM (inactive) |  | > 30 µM (inactive) |  | 
CN1CCC(COc2cnc(-c3cccc(Cn4nc(-c5cccc(C#N)c5)ccc4=O)c3)nc2)CC1 [TEPOTINIB] | > 30 µM (inactive) | > 30 µM (inactive) |  | > 30 µM (inactive) | > 30 µM (inactive) | > 30 µM (inactive) | > 30 µM (inactive) | > 30 µM (inactive) | > 30 µM (inactive) | > 30 µM (inactive) | > 30 µM (inactive) | 
Cc1cc(-c2cc(O)ccc2Cl)cc2nnc(Nc3ccc(OCCN4CCCC4)cc3)nc12 | > 30 µM (inactive) | > 30 µM (inactive) | > 30 µM (inactive) | > 30 µM (inactive) | > 30 µM (inactive) | > 30 µM (inactive) | > 30 µM (inactive) | > 30 µM (inactive) | > 30 µM (inactive) | > 30 µM (inactive) | > 30 µM (inactive) | 
Cc1c(F)cc(C(=O)NC2CC2)cc1-c1ccc(C(=O)NCC(C)(C)C)cn1 [LOSMAPIMOD] | > 30 µM (inactive) | > 30 µM (inactive) | > 30 µM (inactive) | > 30 µM (inactive) | > 30 µM (inactive) | > 30 µM (inactive) | > 30 µM (inactive) | > 30 µM (inactive) | > 30 µM (inactive) | > 30 µM (inactive) | > 30 µM (inactive) | 
COc1cc(N2CCC(N3CCN(C)CC3)CC2)ccc1Nc1ncnc(Nc2ccccc2S(=O)(=O)C(C)C)n1 [ASP-3026] | > 30 µM (inactive) | > 30 µM (inactive) | > 30 µM (inactive) | > 30 µM (inactive) | > 30 µM (inactive) | > 30 µM (inactive) | > 30 µM (inactive) | > 30 µM (inactive) | > 30 µM (inactive) |  | > 30 µM (inactive) | 
Cc1ccc(S(=O)(=O)Nc2nc3ccccc3nc2Nc2ccc3nsnc3c2)cc1 | > 30 µM (inactive) | > 30 µM (inactive) | > 30 µM (inactive) | > 30 µM (inactive) | > 30 µM (inactive) | > 30 µM (inactive) | > 30 µM (inactive) |  | > 30 µM (inactive) | > 30 µM (inactive) | > 30 µM (inactive) | 
C=CC(=O)N1CCC(Oc2cc3c(Nc4ccc(Cl)c(Cl)c4F)ncnc3cc2OC)CC1 [POZIOTINIB] | > 30 µM (inactive) | > 30 µM (inactive) | > 30 µM (inactive) | > 30 µM (inactive) | > 30 µM (inactive) | > 30 µM (inactive) | > 30 µM (inactive) |  | > 30 µM (inactive) | > 30 µM (inactive) | > 30 µM (inactive) | 
